SMILES strings stand for the structures.

One data set relates to human plasma proteins. Description: Binding to human plasma proteins. It is filed as in vitro ADME.
The nature of data set [1]: Population PK model of ceftolozane and tazobactam (healthy volunteers, renal impairment, cUTI/cIAI patients). Particulars: for CLd, population estimate: intercompartmental clearance; for Vc (L)^d, population estimate: peripheral volume of distribution per footnote. The protocol:
A population-PK analysis was performed on plasma ceftolozane and tazobactam concentration-time data from adult subjects enrolled in 10 studies. Subjects were included from multiple sites and all studies were performed in accordance with the International Conference on Harmonization guidelines on good clinical practice and the Declaration of Helsinki. An investigational review board approved the study protocols at each site.
Serum concentration data were analyzed from 5 studies in healthy volunteers (n=184), 3 studies in subjects with varying degrees of renal impairment (n=42), and 2 phase 2 studies in patients with bacterial infections (cUTIs [n=73] and cIAIs [n=77]). In all studies, ceftolozane was administered as a 1-hour intravenous infusion either alone or in combination with tazobactam at a fixed 2:1 ratio (ceftolozane:tazobactam). […] In the phase 2 trials, cUTI patients received ceftolozane alone 1000 mg (q8h) and cIAI patients received ceftolozane/tazobactam 1000/500 mg (q8h).
All subjects who received at least 1 dose of study medication and had at least 1 measurement of ceftolozane or tazobactam were included (N=376). Plasma concentrations of ceftolozane and tazobactam were determined by a validated liquid-chromatography-tandem mass spectrometry assay (MicroConstants, Inc., San Diego, Calif.) described previously. Concentrations below the limit of quantitation (BLQ), as defined previously, were considered as missing. No substitutions were made to account for these missing data points.
Base model development. The model was developed in 2 stages: a preliminary PK model was developed based on datasets from 3 studies. In the current analysis, the structural model was refined using the PK data from 10 studies (including patients with cUTI or cIAI) and the covariate analysis repeated. The results based on this revised model are presented here. A nonlinear mixed-effects model was developed with Phoenix® NLME™ software, version 1.2, 2012 (Certara L. P. Pharsight, St. Louis, Mo.) using first-order maximum likelihood estimation, and a 2-compartment structure model was fitted to the plasma concentration time data. The First Order Conditional Estimation-Extended Least Squares (FOCE-ELS) engine was used for model fitting. The software R (R Foundation for Statistical Computing, Vienna, Austria, 2013) was used to generate tables of post hoc PK parameters and descriptive statistics.
Sources of variability, that may affect drug exposure, were identified using correlation plots of individual random effects (ETA with mean 0 and estimated variance ? ^2) of parameters such as systemic clearance (CL) and central volume of distribution (Vc) versus covariates. Extrinsic covariates analyzed included dose levels, drug-drug interactions between ceftolozane and tazobactam, and disease status (bacterial infections). Intrinsic covariates analyzed included body weight, age, sex, ethnicity, and baseline calculated CrCL). […] Renal impairment was categorized as normal (CrCL≥90 mL/min), mild (CrCL≥50-<90 mL/min), moderate (CrCL≥30-<50 mL/min), and severe (CrCL≥15-<30 mL/min).
Scatter plots were used to examine the effect of continuous variables and box plots were used for categorical variables. […] Covariates were introduced in a multiplicative order using a power model standardized by the median for continuous covariates and a linear model with an exponentiated factor relative to the reference for categorical covariates.
Final population PK model: evaluation and performance. The final population-PK models for ceftolozane and tazobactam were evaluated using standard diagnostics, goodness-of-fit criteria, nonparametric bootstrap resampling, and visual predictive check (VPC).

The conditions of data set [2]: threshold = 1/2 of the TOL/TAZ MIC; cited from earlier work.
Data set [3] in a line: clinical. Particulars: human, in vivo. From the text: The most common adverse reactions (≥5% in either indication) occurring in patients receiving CXA-201 were nausea, headache and diarrhea. Table 3 lists adverse reactions occurring in ≥1.0% of patients receiving CXA-201 in Phase 3 clinical trials.
The majority of adverse events were mild to moderate in severity, and the incidence of treatment-limiting adverse events was <2% in both treatment groups. Epidemiology and susceptibility of organisms isolated from patients with cUTI.

The nature of data set [4]: clinical. Particulars: both, human, in vivo, 750 mg. The protocol: This was a Phase 1, multicenter, prospective, open-label study of 750 mg ceftolozane/tazobactam (as CXA-201) administered IV in male and female adult subjects with severe renal impairment (estimated CLCR<30 mL/min) and subjects with end-stage renal disease (ESRD) on hemodialysis (HD). The primary objective of the study was to determine the PK profile of ceftolozane/tazobactam in subjects with severe renal impairment and subjects with ESRD on HD and to determine the effect of HD on the clearance of ceftolozane/tazobactam.
Subjects with severe renal impairment received a single IV 1-hour infusion of 750 mg ceftolozane/tazobactam on Day 1. […] Subjects in this cohort received an IV dose of 750 mg ceftolozane/tazobactam as a 1 hour infusion immediately after their first HD session on Day 1 (post dialysis, approximately 72 hours prior to the next HD session) and a second dose of ceftolozane/tazobactam approximately 2 hours before their second HD session on Day 4 of the study. Infusion of ceftolozane/tazobactam was completed approximately 1 hour before the start of HD.
Subjects in both cohorts had urine (if not anuric) and plasma samples collected for determination of levels of ceftolozane, tazobactam and the M1 metabolite of tazobactam; subjects in the ESRD on HD cohort also had dialysate fluid samples collected for PK assessment. Plasma, urine, and dialysate levels of ceftolozane, tazobactam, and its metabolite M1 collected over a prespecified interval were determined by LC/MS/MS assay.

In the next data set the test system is P. aeruginosa. Conditions: neutropenic murine-thigh infection model; cited from earlier work.

Regarding `C[C@]1(Cn2ccnn2)[C@H](C(=O)O)N2C(=O)C[C@H]2S1(=O)=O` [Tazobactam, tazobactam], the “binding to human plasma proteins” value with human plasma proteins was ~30%. For the same compound, in data set [1] (Table 31 model), the “Exponent of the relationship between CLcr and CL” value turned out to be 0.67; the “Interindividual variability of CL, estimate” value was 50.2%; the “Interindividual variability of Vc, estimate” value is listed as 52.5%; the “Proportional shift in Vc for infected patients” value is 1.47. In data set [1] (Table 31 model), the “Vc, population estimate” value was 14.2 L; the “CLd, population estimate” value is 3.13 L/h; the “Vc (L)^d, population estimate” value is listed as 4.29 L. In data set [1] ([CrCL/115] exponent), the “power function of baseline CrCL on CL” value is 0.67. Also, in data set [1] (final model), the “CL, population estimate” value is on record as 18.0 L/h; the “between-subject variability (BSV) of CL” value is 50.2%; the “between-subject variability (BSV) of Vc” value stood at 52.5%; the “inter-compartment clearance (CL2), population PK” value is 3.13 L/h. Besides, the “volume of distribution in the peripheral compartment (Vp), population PK” value in data set [1] (final model) amounted to 4.29 L. Moreover, in data set [1] (previously-developed population PK model (Table 31)), the “CL, population estimate” value was 18.0 L/h. Besides, in data set [1] (subjects without infection), the “Vc, population estimate” value is on record as 14.2 L. For the same compound, in data set [2], the “free-drug % T>threshold target” value is 65.9.
Broadly, the AUC is the area under the concentration-time curve, a measure of exposure. Read a high AUC as high exposure. What is called AUC(0-inf) is total exposure, with the tail of the curve extrapolated. Low values mean low exposure, high ones high exposure. In general, AUC(0-t) refers to the area under the concentration-time curve up to a stated or last time point. In general, Vd refers to the apparent volume that relates the amount in the body to the concentration in plasma or blood. The low end stands for confinement near the circulation, the high end for extensive tissue distribution. The clearance is the volume of plasma or blood freed of the substance per unit of time. In general, half-life refers to the time in which the quantity being followed falls by half. For the compound `Cn1c(N)c(NC(=O)NCCN)c[n+]1CC1=C(C(=O)O)N2C(=O)[C@@H](NC(=O)/C(=N\OC(C)(C)C(=O)O)c3nsc(N)n3)[C@H]2SC1` [Ceftolozane, (6R,7R)-3-[(5-amino-4-{[(2-aminoethyl)carbamoyl]amino}-1-methyl-1H-pyrazol-2-ium-2-yl)methyl]-7-({(2Z)-2-(5-amino-1,2,4-thiadiazol-3-yl)-2-[(1-carboxy-1-methylethoxy)imino]acetyl}amino)-8-oxo-5-thia-1-azabicyclo[4.2.0]oct-2-ene-2-carboxylate], in the data set “clinical [3]”, the AUC was found to be 1100 µg·h/mL; the “daily AUC previously shown to be safe and tolerable in humans” value is 1100 µg·h/mL. In data set [1] (Table 31 model), the “Exponent of the relationship between CLcr and CL” value is 0.75; the “Exponent of the relationship between weight and CL” value came out at 0.76; the “Interindividual variability of CL, estimate” value is 34.3%; the “Interindividual variability of Vc, estimate” value was 34.0%. In addition, in data set [1] (Table 31 model), the “Proportional shift in CL for infected patients” value came out at 1.26; the “Proportional shift in Vc for infected patients” value was found to be 1.37; the “Vc, population estimate” value is 11.8 L; the “CLd, population estimate” value is 0.884 L/h. Besides, the “Vc (L)^d, population estimate” value in data set [1] (Table 31 model) is 2.88 L. For the same compound, the “Vc, population PK” value in data set [1] (cIAI) is recorded as 18.2 L. In addition, the “Vc, population PK” value in data set [1] (cUTI, at 74 kg body weight) is recorded as 13.8 L. Further, the “between-subject variability (BSV) of CL” value in data set [1] (final model) was 33.0%. In data set [1] (human), the “CL, population estimate” value was 5.14 L/h; the “inter-compartment clearance (CL2), population PK” value is “about 1 L/h”; the “volume of distribution in the peripheral compartment (Vp), population PK” value is recorded as “about 3 L”. In data set [1] (patients with cUTI and cIAI), the “CL higher than in healthy subjects” value is given as “about 20%”. In “clinical [4]”, the AUC(0-inf) amounted to 537 µg·h/mL, the AUC(0-t) was found to be 511 µg·h/mL, the Vd came to 13.8 L and the clearance was 16.7 mL/min. The compound further had a half-life in “clinical [4]” of 11.1 h. For the same compound, in the data set with P. aeruginosa, the “free-drug % T>MIC target associated with 1-log10 CFU reduction from baseline (bactericidal, 1-log kill)” value was 32.2% and the “free-drug % T>MIC target associated with net bacterial stasis” value was 24.8%.

The values are drawn from US10933053B2, “Treating infections with ceftolozane/tazobactam in subjects having impaired renal function” (MERCK SHARP & DOHME CORP., priority 2013, dated 2021).
